The source of these data is patent US20240165281A1, “DUAL MODE RADIOTRACER AND THERAPEUTICS” (Technische Universität München, priority 2021, published 2024).

The nature of series [1]: Octanol-water partition coefficient (log D7.4). To be noted: PBS pH 7.4 / n-octanol, 177Lu-labelled. Type of series: physicochemical. As to the method: Octanol-Water Partition Coefficient (log D7.4)
Approximately 1 MBq of the labelled tracer was dissolved in 1 mL of a 1:1 mixture (v/v) of PBS (pH 7.4) and n-octanol in a reaction vial (1.5 mL). After vigorous mixing of the suspension for 3 minutes at room temperature, the vial was centrifuged at 15000 g for 3 minutes (Biofuge 15, Heraus Sepatech, Osterode, Germany) and 100 μL aliquots of both layers were measured in a gamma counter. The experiment was repeated at least six times.

For series [2], the system named is LNCaP cells. The series can be described thus: Internalization studies in LNCaP cells. It counts as cell-based. To be noted: 37° C., 60 min. Here is the method:
PSMA-positive LNCAP cells (300265; Cell Lines Service, Eppelheim, Germany) were cultivated in Dulbecco modified Eagle medium/Nutrition Mixture F-12 with Glutamax (1:1) (DMEM-F12, Biochrom, Berlin, Germany) supplemented with fetal bovine serum (10%, FBS Zellkultur, Berlin, Germany) and kept at 37° C. in a humidified CO2 atmosphere (5%). A mixture of trypsin and EDTA (0.05%, 0.02%) in PBS (Biochrom) was used in order to harvest cells. Cells were counted with a Neubauer hemocytometer (Paul Marienfeld, Lauda-Königshofen, Germany).
For internalization studies, LNCaP cells were harvested 24±2 hours before the experiment and seeded in poly-L-lysine coated 24-well plates (1.25×10^5 cells in 1 mL/well, Greiner Bio-One, Kremsmünster, Austria). After removal of the culture medium, the cells were washed once with 500 μL DMEM-F12 (5% BSA) and left to equilibrate for at least 15 min at 37° C. in […] DMEM-F12 (5% BSA). Each well was treated with either 25 μL of either DMEM-F12 (5% BSA, control) or 25 μL of a 100 μM PMPA (2-(Phosphonomethyl)-pentandioic acid, Tocris Bioscience, Bristol, UK) solution in PBS, for blockade. Next, 25 μL of the radioactive-labelled PSMA inhibitor (10.0 nM in DMEM-F12 (5% BSA)) was added and the cells were incubated at 37° C. for 60 min. The experiment was terminated by placing the 24-well plate on ice for 3 min and consecutive removal of the medium. Each well was carefully washed with 250 μL of ice-cold HBSS. Both fractions from the first steps, representing the amount of free radioligand, were combined. Removal of surface bound activity was accomplished by incubation of the cells with 250 μL of ice-cold PMPA (10 μM in PBS) solution for 5 min and rinsed again with another 250 μL of ice-cold PBS. The internalized activity was determined by incubation of the cells in 250 μL […] aqueous NaOH for at least 10 min. The obtained fractions were combined with those of the subsequent wash step with 250 μL 1 M aqueous NaOH. Each experiment (control and blockade) was performed in triplicate. Free, surface bound and internalized activity was quantified in a y-counter. All internalization studies were accompanied by external reference studies, using ([^125I]I-BA)KuE (c=0.2 nM), which were performed analogously. Data were corrected for non-specific binding and normalized to the specific-internalization observed for the radioiodinated reference compound.

In series [1], `CC(C)(C)[Si](F)(c1ccc(C(=O)NC[C@@H](NC(=O)CN2CCN(CC(=O)O)CCN(CC(=O)O)CCN(CC(=O)O)CC2)C(=O)N[C@H](CO)C(=O)NCCC(=O)NCCC(=O)NCCC[C@@H](NC(=O)CC[C@H](NC(=O)N[C@@H](CCC(=O)O)C(=O)O)C(=O)O)C(=O)O)cc1)C(C)(C)C` [Compound 2C013] had a logD7.4 of −3.30 ± 0.06. For the same molecule, the figures for the Internalization in series [2] (normalized to ([125I]I-BA)KuE) and in series [2] (normalized to reference) were 141 ± 8^ % IBA-KuE and 141 ± 8 % IBA, respectively.
